One block for each compound: values may come before it. Active and inactive are the calls of the source. The rule behind the calls is not given here.
What was measured:
[1] = Inhibition of FIH (unknown origin) using HIF-1alpha CAD (D788 to L822 residues) as substrate; set-up: species or system Homo sapiens
[2] = target: Egl nine homolog 1 (Homo sapiens) (UniProt Q9GZT9); test: Inhibition of N-terminal His6-tagged truncated PHD2 (181 to 426 residues) (unknown origin) expressed in Escherichia coli BL21 DE3 using H1F1-alpha NODD as substrate preincubated for 15 mins followed by substrate addition and measured after 15 mins by mass spectrometry
[3] = target: Egl nine homolog 1 (Homo sapiens) (UniProt Q9GZT9); test: Inhibition of N-terminal His6-tagged truncated PHD2 (181 to 426 residues) (unknown origin) expressed in Escherichia coli BL21 DE3 using H1F1-alpha CODD as substrate preincubated for 15 mins followed by substrate addition and measured after 15 mins by mass spectrometry
[4] = target: T1, Lysine-specific demethylase 4A (Homo sapiens, UniProt O75164); test: Inhibition of KDM4A (unknown origin) using H3 K9Me3 (1 to 15 residues) as substrate
T1 sequence (O75164 whole entry): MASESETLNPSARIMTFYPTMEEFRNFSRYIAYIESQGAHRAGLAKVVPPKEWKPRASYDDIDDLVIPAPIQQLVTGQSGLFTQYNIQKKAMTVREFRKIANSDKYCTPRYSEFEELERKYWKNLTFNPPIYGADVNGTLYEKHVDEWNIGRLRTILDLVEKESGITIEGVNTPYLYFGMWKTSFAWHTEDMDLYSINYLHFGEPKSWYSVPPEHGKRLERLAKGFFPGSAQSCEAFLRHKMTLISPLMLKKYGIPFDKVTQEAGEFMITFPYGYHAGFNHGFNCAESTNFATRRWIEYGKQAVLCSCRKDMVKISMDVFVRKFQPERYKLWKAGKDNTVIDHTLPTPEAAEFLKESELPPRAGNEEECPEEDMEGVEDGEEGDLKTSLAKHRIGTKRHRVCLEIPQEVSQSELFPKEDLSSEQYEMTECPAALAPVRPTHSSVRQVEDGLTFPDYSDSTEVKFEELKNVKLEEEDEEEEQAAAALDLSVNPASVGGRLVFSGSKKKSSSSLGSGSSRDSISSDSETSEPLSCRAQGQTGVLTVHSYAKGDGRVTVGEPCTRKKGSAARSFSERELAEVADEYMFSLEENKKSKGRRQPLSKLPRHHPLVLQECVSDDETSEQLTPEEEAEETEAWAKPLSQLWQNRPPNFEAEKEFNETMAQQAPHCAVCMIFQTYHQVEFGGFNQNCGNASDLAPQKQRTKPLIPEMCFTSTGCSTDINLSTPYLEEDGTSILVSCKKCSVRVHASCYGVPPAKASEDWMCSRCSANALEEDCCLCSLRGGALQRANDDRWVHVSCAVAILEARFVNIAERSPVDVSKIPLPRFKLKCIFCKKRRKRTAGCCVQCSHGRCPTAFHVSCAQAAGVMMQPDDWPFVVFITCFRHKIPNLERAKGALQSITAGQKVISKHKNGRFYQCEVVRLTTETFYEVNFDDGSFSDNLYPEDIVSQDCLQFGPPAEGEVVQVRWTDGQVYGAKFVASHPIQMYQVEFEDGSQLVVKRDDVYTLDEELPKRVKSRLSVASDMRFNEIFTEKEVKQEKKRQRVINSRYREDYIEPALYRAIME

Egl nine homolog 1 (Homo sapiens), sequence (Q9GZT9 2-426 limits assumed): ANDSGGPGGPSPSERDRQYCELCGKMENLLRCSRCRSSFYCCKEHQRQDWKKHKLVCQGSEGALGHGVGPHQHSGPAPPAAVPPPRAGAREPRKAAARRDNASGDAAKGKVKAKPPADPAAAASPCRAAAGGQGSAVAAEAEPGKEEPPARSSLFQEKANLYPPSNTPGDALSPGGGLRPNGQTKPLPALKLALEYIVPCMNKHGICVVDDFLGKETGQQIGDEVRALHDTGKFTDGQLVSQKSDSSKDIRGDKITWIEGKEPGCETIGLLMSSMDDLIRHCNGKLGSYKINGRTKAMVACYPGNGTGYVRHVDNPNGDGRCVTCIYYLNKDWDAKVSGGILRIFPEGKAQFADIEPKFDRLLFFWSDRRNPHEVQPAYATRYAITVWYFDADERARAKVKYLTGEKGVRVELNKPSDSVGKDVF

Compound: Cc1cccnc1CN1CCC2(CC1)C(=O)N(c1ccc(-c3ccccc3)cc1)C(=O)N2c1ncccn1
IC50 [1]: > 25 µM

Compound: Cc1cccnc1CN1CCC(C(=O)Nc2ccc(-c3ccccc3)cc2)CC1
inhibition [2]: inactive
inhibition [3]: inactive

Compound: O=C1N(c2ccc(-c3ccccc3)cc2)C(=O)C2(CCN(Cc3cccs3)CC2)N1c1ncccn1
IC50 [1]: > 25 µM
IC50 [4]: > 25 µM

Compound: Cc1cccnc1CN1CCCC(C(=O)Nc2ccc(-c3ccccc3)cc2)C1 (centres undefined)
inhibition [2]: inactive
inhibition [3]: inactive

Compound: Cn1ccnc1CN1CCC2(CC1)C(=O)N(c1ccc(-c3ccccc3)cc1)C(=O)N2c1ncccn1
IC50 [1]: > 25 µM
IC50 [4]: > 25 µM

Compound: O=C(Nc1ccc(-c2ccccc2)cc1)C1CCN(Cc2ncccc2O)CC1
inhibition [2]: inactive
inhibition [3]: inactive

Compound: O=C(Nc1ccc(-c2ccccc2)cc1)C1CCN(Cc2ccccc2O)CC1
inhibition [2]: inactive
inhibition [3]: inactive

Compound: O=C1N(c2ccc(-c3ccccc3)cc2)C(=O)C2(CCNCC2)N1c1ncccn1
IC50 [1]: > 25 µM
IC50 [4]: > 25 µM

Compound: COc1cccc(CN2CCC3(CC2)C(=O)N(c2ccc(-c4ccccc4)cc2)C(=O)N3c2ncccn2)n1
IC50 [1]: > 25 µM
IC50 [4]: > 25 µM

Compound: O=C(NCc1ccc(-c2ccccc2)cc1)C1CCN(Cc2ncccc2O)CC1
inhibition [2]: inactive
inhibition [3]: inactive

IC50 [1]: > 25 µM
IC50 [4]: > 25 µM
Compound: Cn1ccnc1CN1CCC2(CC1)NC(=O)N(c1ccc(-c3ccccc3)cc1)C2=O

Compound: O=C1N(c2ccc(-c3ccccc3)cc2)C(=O)C2(CCN(Cc3ccccc3O)CC2)N1c1ncccn1
IC50 [1]: > 25 µM
IC50 [4]: 12.3 µM

IC50 [1]: > 25 µM
IC50 [4]: > 25 µM
Compound: Cc1cccnc1CN1CCC2(CC1)NC(=O)N(c1ccc(-c3ccccc3)cc1)C2=O

Compound: Cc1cccnc1CN1CCC2(CC1)C(=O)N(c1ccc(-c3ccccc3)cc1)C(=O)N2c1cc(C(=O)O)ccn1
IC50 [1]: > 25 µM
IC50 [4]: > 25 µM

Compound: O=C(Nc1ccc(-c2ccccc2)cc1)C1CCCN(Cc2ncccc2O)C1 (centres undefined)
inhibition [2]: inactive
inhibition [3]: inactive

Compound: COc1ccnc(N2C(=O)N(c3ccc(-c4ccccc4)cc3)C(=O)C23CCN(Cc2ncccc2C)CC3)n1
IC50 [1]: 21.6 µM
IC50 [4]: > 25 µM

Compound: O=C(Nc1ccc(-c2ccccc2)cc1)C1CCCN(Cc2ccccc2O)C1 (centres undefined)
inhibition [2]: inactive
inhibition [3]: inactive

Compound: O=C1N(c2ccc(-c3ccccc3)cc2)C(=O)C2(CCN(Cc3ncc[nH]3)CC2)N1c1ncccn1
IC50 [1]: > 25 µM
IC50 [4]: > 25 µM

Compound: Cc1cccnc1CN1CCC(C(=O)NCc2ccc(-c3ccccc3)cc2)CC1
inhibition [2]: inactive
inhibition [3]: inactive

Compound: O=C(NCc1ccc(-c2ccccc2)cc1)C1CCN(Cc2ccccc2O)CC1
inhibition [2]: inactive
inhibition [3]: inactive

From ChEMBL document CHEMBL4480376, “Studies on spiro[4.5]decanone prolyl hydroxylase domain inhibitors” (Medchemcomm, 2019)
